The text below walks through data of patent US7034035B2, “Fungicidal mono-, bi-, and tri-cycloheteroalkyl amides and their compositions, methods of use and preparation” (priority 1999, dated 2006).

The structures appear in SMILES notation.

Assay [1] deals with Rhizoctonia solani (RHIZSO). Put plainly: microbe, parasite or virus in culture. In kind it is cell-based.
Assay [2] deals with Ustilago maydis (USTIMA). The assay can be described thus: microbe, parasite or virus in culture. In kind it is cell-based.
Also: test concentration or dose not given here.

In the case of `COc1ccnc(C(=O)NC2CC(c3ccco3)CC(C)(C)C2)c1O` (stereo not shown) [Compound 258], the “RHIZSO in vitro Growth Inhibition” value in assay [1] is on record as “− (key: +: at least 80% growth inhibition; −: less than 80% growth inhibition)”. Besides, in assay [2], the “USTIMA in vitro Growth Inhibition” value is given as “− (key: +: at least 80% growth inhibition; −: less than 80% growth inhibition)”.

For the molecule `O=C(NCCc1ccc(Cl)cc1)c1ncccc1O` [Compound 233, N-(2-(4-Chlorophenyl)Ethyl)-3-Hydroxypyridine-2-Carboxamide], the “RHIZSO in vitro Growth Inhibition” value in assay [1] was “− (key: +: at least 80% growth inhibition; −: less than 80% growth inhibition)”. Further, the “USTIMA in vitro Growth Inhibition” value in assay [2] is listed as “+ (key: +: at least 80% growth inhibition; −: less than 80% growth inhibition)”.

Take `COc1ccnc(C(=O)NC2CCCCCCC2)c1O` [Compound 282]: the “RHIZSO in vitro Growth Inhibition” value in assay [1] is given as “− (key: +: at least 80% growth inhibition; −: less than 80% growth inhibition)”. The “USTIMA in vitro Growth Inhibition” value in assay [2] is “− (key: +: at least 80% growth inhibition; −: less than 80% growth inhibition)”.

For `COc1ccnc(C(=O)N[C@@H]2CC3CC2[C@H]2COC[C@@H]32)c1O` (stereo partly shown) [Compound 302], the “RHIZSO in vitro Growth Inhibition” value in assay [1] is on record as “− (key: +: at least 80% growth inhibition; −: less than 80% growth inhibition)”. Further, the “USTIMA in vitro Growth Inhibition” value in assay [2] is reported as “− (key: +: at least 80% growth inhibition; −: less than 80% growth inhibition)”.

Consider `CC1(C)CC(NC(=O)c2ncccc2O)CC(C)(C)C1=O` [Compound 205], for which the “RHIZSO in vitro Growth Inhibition” value in assay [1] is “− (key: +: at least 80% growth inhibition; −: less than 80% growth inhibition)”. Moreover, in assay [2], the “USTIMA in vitro Growth Inhibition” value is “− (key: +: at least 80% growth inhibition; −: less than 80% growth inhibition)”.

For `COc1ccnc(C(=O)N[C@H]2C(O)[C@@H]3CC[C@H]2[C@@H]2CCCC[C@@H]23)c1O` (stereo partly shown) [Compound 293], in assay [1], the “RHIZSO in vitro Growth Inhibition” value is on record as “− (key: +: at least 80% growth inhibition; −: less than 80% growth inhibition)”. In assay [2], the “USTIMA in vitro Growth Inhibition” value is “− (key: +: at least 80% growth inhibition; −: less than 80% growth inhibition)”.

Turning to `O=C(Nc1ccc(Oc2ccc(C(F)(F)F)cc2)cc1)c1ncccc1O` [Compound 217], the “RHIZSO in vitro Growth Inhibition” value in assay [1] is on record as “− (key: +: at least 80% growth inhibition; −: less than 80% growth inhibition)”. In addition, the “USTIMA in vitro Growth Inhibition” value in assay [2] is recorded as “− (key: +: at least 80% growth inhibition; −: less than 80% growth inhibition)”.

Take `COc1cccc(CNC(=O)c2ncccc2O)c1` [Compound 225]: the “RHIZSO in vitro Growth Inhibition” value in assay [1] is “− (key: +: at least 80% growth inhibition; −: less than 80% growth inhibition)”. The “USTIMA in vitro Growth Inhibition” value in assay [2] was “− (key: +: at least 80% growth inhibition; −: less than 80% growth inhibition)”.

For the molecule `COc1ccnc(C(=O)NC2O[C@H](CO)[C@H]3OC(C)(C)O[C@@H]23)c1O` (stereo partly shown) [Compound 329], the “RHIZSO in vitro Growth Inhibition” value in assay [1] is “− (key: +: at least 80% growth inhibition; −: less than 80% growth inhibition)”. In addition, the “USTIMA in vitro Growth Inhibition” value in assay [2] is reported as “− (key: +: at least 80% growth inhibition; −: less than 80% growth inhibition)”.

As to `COc1ccnc(C(=O)NC2CCC[C@H]3[C@H]4CC[C@H](C4)[C@@H]23)c1O` (stereo partly shown) [Compound 291], the “RHIZSO in vitro Growth Inhibition” value in assay [1] is on record as “+ (key: +: at least 80% growth inhibition; −: less than 80% growth inhibition)”. Also, the “USTIMA in vitro Growth Inhibition” value in assay [2] is recorded as “− (key: +: at least 80% growth inhibition; −: less than 80% growth inhibition)”.

In the case of `COc1ccnc(C(=O)NC2CCN(Cc3ccc(C)cc3)CC2)c1O` [Compound 306], the “RHIZSO in vitro Growth Inhibition” value in assay [1] is “− (key: +: at least 80% growth inhibition; −: less than 80% growth inhibition)”. In addition, the “USTIMA in vitro Growth Inhibition” value in assay [2] is “− (key: +: at least 80% growth inhibition; −: less than 80% growth inhibition)”.

Turning to `COc1ccnc(C(=O)NC(C)c2ccc(C(F)(F)F)cc2)c1O` (stereo not shown) [Compound 247], the “RHIZSO in vitro Growth Inhibition” value in assay [1] was “− (key: +: at least 80% growth inhibition; −: less than 80% growth inhibition)”. The “USTIMA in vitro Growth Inhibition” value in assay [2] is “− (key: +: at least 80% growth inhibition; −: less than 80% growth inhibition)”.

Take `CC1(C)CC(NC(=O)c2ncccc2O)CC(C)(C2CC2)C1` (stereo not shown) [Compound 204]: the “RHIZSO in vitro Growth Inhibition” value in assay [1] is listed as “− (key: +: at least 80% growth inhibition; −: less than 80% growth inhibition)”. In addition, in assay [2], the “USTIMA in vitro Growth Inhibition” value was “− (key: +: at least 80% growth inhibition; −: less than 80% growth inhibition)”.

As for `O=C(Nc1nccs1)c1ncccc1O` [Compound 235], the “RHIZSO in vitro Growth Inhibition” value in assay [1] is “+ (key: +: at least 80% growth inhibition; −: less than 80% growth inhibition)”. Also, the “USTIMA in vitro Growth Inhibition” value in assay [2] is “+ (key: +: at least 80% growth inhibition; −: less than 80% growth inhibition)”.

In the case of `COc1ccnc(C(=O)NC2CC(C)(C)C(OC(=O)CC(C)C)C(C)(C)C2)c1O` (stereo not shown) [Compound 267], in assay [1], the “RHIZSO in vitro Growth Inhibition” value is listed as “− (key: +: at least 80% growth inhibition; −: less than 80% growth inhibition)”. In addition, in assay [2], the “USTIMA in vitro Growth Inhibition” value is “+ (key: +: at least 80% growth inhibition; −: less than 80% growth inhibition)”.

With `Cc1ccnc(C(=O)Nc2ccc(Oc3cccc(C(F)(F)F)c3)cc2)c1O` [Compound 238], the “RHIZSO in vitro Growth Inhibition” value in assay [1] is “− (key: +: at least 80% growth inhibition; −: less than 80% growth inhibition)”. Also, the “USTIMA in vitro Growth Inhibition” value in assay [2] is “− (key: +: at least 80% growth inhibition; −: less than 80% growth inhibition)”.

`COc1ccnc(C(=O)NC2CC(C)(C)C(Cl)C(Cl)[C@H](C)[C@H]2C)c1O` (stereo partly shown) [Compound 281]: the “RHIZSO in vitro Growth Inhibition” value in assay [1] is reported as “− (key: +: at least 80% growth inhibition; −: less than 80% growth inhibition)”. Besides, in assay [2], the “USTIMA in vitro Growth Inhibition” value is reported as “− (key: +: at least 80% growth inhibition; −: less than 80% growth inhibition)”.

`COc1ccnc(C(=O)NC2CCC(Sc3ccccc3)CC2)c1O` (stereo not shown) [Compound 275]: the “RHIZSO in vitro Growth Inhibition” value in assay [1] is “+ (key: +: at least 80% growth inhibition; −: less than 80% growth inhibition)”. The “USTIMA in vitro Growth Inhibition” value in assay [2] was “− (key: +: at least 80% growth inhibition; −: less than 80% growth inhibition)”.

`Cc1cccc(CNC(=O)c2ncccc2O)c1` [Compound 222]: in assay [1], the “RHIZSO in vitro Growth Inhibition” value is recorded as “− (key: +: at least 80% growth inhibition; −: less than 80% growth inhibition)”. The “USTIMA in vitro Growth Inhibition” value in assay [2] is “− (key: +: at least 80% growth inhibition; −: less than 80% growth inhibition)”.

On to `COCCCc1ccc2c(c1)OC(C)C(NC(=O)c1nccc(OC)c1O)C2=O` (stereo not shown) [Compound 322], for which, in assay [1], the “RHIZSO in vitro Growth Inhibition” value is “+ (key: +: at least 80% growth inhibition; −: less than 80% growth inhibition)”. Moreover, the “USTIMA in vitro Growth Inhibition” value in assay [2] was “− (key: +: at least 80% growth inhibition; −: less than 80% growth inhibition)”.

As for `CC(C)C(=O)OC1CCC(NC(=O)c2ncccc2O)CC1` (stereo not shown) [Compound 210], the “RHIZSO in vitro Growth Inhibition” value in assay [1] was “− (key: +: at least 80% growth inhibition; −: less than 80% growth inhibition)”. The “USTIMA in vitro Growth Inhibition” value in assay [2] was “− (key: +: at least 80% growth inhibition; −: less than 80% growth inhibition)”.

For the molecule `CCC1(C)OCC(NC(=O)c2nccc(OC)c2O)CO1` (stereo not shown) [Compound 314], the “RHIZSO in vitro Growth Inhibition” value in assay [1] was “− (key: +: at least 80% growth inhibition; −: less than 80% growth inhibition)”. For the same molecule, in assay [2], the “USTIMA in vitro Growth Inhibition” value was “− (key: +: at least 80% growth inhibition; −: less than 80% growth inhibition)”.

As for `O=C(NCc1ccc(Cl)c(Cl)c1)c1ncccc1O` [Compound 221], the “RHIZSO in vitro Growth Inhibition” value in assay [1] is “− (key: +: at least 80% growth inhibition; −: less than 80% growth inhibition)”. In addition, in assay [2], the “USTIMA in vitro Growth Inhibition” value was “− (key: +: at least 80% growth inhibition; −: less than 80% growth inhibition)”.

For `COc1ccnc(C(=O)NC2CC(C)(C)CC(C)(C3CC3)C2)c1O` (stereo not shown) [Compound 252], the “RHIZSO in vitro Growth Inhibition” value in assay [1] is “+ (key: +: at least 80% growth inhibition; −: less than 80% growth inhibition)”. For the same molecule, in assay [2], the “USTIMA in vitro Growth Inhibition” value was “− (key: +: at least 80% growth inhibition; −: less than 80% growth inhibition)”.

With `COc1ccnc(C(=O)NCC2C(C=C(C)C)C2(C)C)c1O` (stereo not shown) [Compound 241], the “RHIZSO in vitro Growth Inhibition” value in assay [1] was “+ (key: +: at least 80% growth inhibition; −: less than 80% growth inhibition)”. Moreover, the “USTIMA in vitro Growth Inhibition” value in assay [2] is listed as “− (key: +: at least 80% growth inhibition; −: less than 80% growth inhibition)”.

For `O=C(NC1CCCCCCC1)c1ncccc1O` [Compound 203], the “RHIZSO in vitro Growth Inhibition” value in assay [1] was “+ (key: +: at least 80% growth inhibition; −: less than 80% growth inhibition)”. Also, in assay [2], the “USTIMA in vitro Growth Inhibition” value is “− (key: +: at least 80% growth inhibition; −: less than 80% growth inhibition)”.

In the case of `COc1ccnc(C(=O)NC2C3CSC2CN(Cc2ccccc2)C3)c1O` (stereo not shown) [Compound 325], the “RHIZSO in vitro Growth Inhibition” value in assay [1] is “− (key: +: at least 80% growth inhibition; −: less than 80% growth inhibition)”. Moreover, the “USTIMA in vitro Growth Inhibition” value in assay [2] is “− (key: +: at least 80% growth inhibition; −: less than 80% growth inhibition)”.

`CCCCC1(C)CCCC(NC(=O)c2nccc(OC)c2O)C1` (stereo not shown) [Compound 254]: the “RHIZSO in vitro Growth Inhibition” value in assay [1] was “− (key: +: at least 80% growth inhibition; −: less than 80% growth inhibition)”. Further, in assay [2], the “USTIMA in vitro Growth Inhibition” value is “− (key: +: at least 80% growth inhibition; −: less than 80% growth inhibition)”.

In the case of `COc1ccnc(C(=O)NC2CC(C)(C)C=CC(C)C2C)c1O` (stereo not shown) [Compound 279], in assay [1], the “RHIZSO in vitro Growth Inhibition” value is listed as “− (key: +: at least 80% growth inhibition; −: less than 80% growth inhibition)”. The “USTIMA in vitro Growth Inhibition” value in assay [2] is listed as “− (key: +: at least 80% growth inhibition; −: less than 80% growth inhibition)”.

As for `COc1ccnc(C(=O)NC2CC(C)(C)CC(C)(C(=O)c3ccccc3)C2)c1O` (stereo not shown) [Compound 260], the “RHIZSO in vitro Growth Inhibition” value in assay [1] is “− (key: +: at least 80% growth inhibition; −: less than 80% growth inhibition)”. In addition, in assay [2], the “USTIMA in vitro Growth Inhibition” value is listed as “− (key: +: at least 80% growth inhibition; −: less than 80% growth inhibition)”.

With `COc1ccccc1CNC(=O)c1ncccc1O` [Compound 224], the “RHIZSO in vitro Growth Inhibition” value in assay [1] is “− (key: +: at least 80% growth inhibition; −: less than 80% growth inhibition)”. Also, in assay [2], the “USTIMA in vitro Growth Inhibition” value is “− (key: +: at least 80% growth inhibition; −: less than 80% growth inhibition)”.

As to `CCCCC1(C)CC(NC(=O)c2nccc(OC)c2O)CC(C)(C)C1` (stereo not shown) [Compound 253], in assay [1], the “RHIZSO in vitro Growth Inhibition” value is reported as “− (key: +: at least 80% growth inhibition; −: less than 80% growth inhibition)”. Also, the “USTIMA in vitro Growth Inhibition” value in assay [2] is given as “− (key: +: at least 80% growth inhibition; −: less than 80% growth inhibition)”.
